Measured values: patent US10597377B2, “Somatostatin modulators and uses thereof” (priority 2016, dated 2020)

Target: human SSTR2 (Homo sapiens (Human), UniProt P30874)
Assay: Human SSTR2 intracellular cAMP functional assay for agonists (CHO-K1 cells, HTRF)
Format: cell-based
Conditions: inhibition of cAMP activities via human SST2R; CHO-K1 cells stably expressing human SSTR2
Description: Functional Assay for SSTR2 Agonists
General overview: All five SSTR subtypes are Gi coupled G-protein coupled receptors (GPCRs) that lead to decreases in intracellular cyclic AMP (cAMP) when activated by an agonist. […] Human SSTR2 intracellular cAMP assay is described below. The human SSTR1, 3, 4 and 5 assays follow the same protocol of SSTR2.
The cells are cultured at 37° C., 5% CO2 and 95% humidity. […] The cells are incubated for 20 minutes at 37° C. […] The cells are treated with 50 μL of lysis buffer (HRTF cAMP kit, Cisbio). […] The time-resolved fluorescent signal is read with a Tecan M1000Pro multiplate reader. The intracellular cAMP concentrations are calculated by regression to a standard curve and are plotted vs. the concentration of the compounds of the invention and the EC50 of the compounds are calculated using standard methods. All data manipluations are in GraphPad Prism v6.

human SSTR2, sequence (P30874 whole entry): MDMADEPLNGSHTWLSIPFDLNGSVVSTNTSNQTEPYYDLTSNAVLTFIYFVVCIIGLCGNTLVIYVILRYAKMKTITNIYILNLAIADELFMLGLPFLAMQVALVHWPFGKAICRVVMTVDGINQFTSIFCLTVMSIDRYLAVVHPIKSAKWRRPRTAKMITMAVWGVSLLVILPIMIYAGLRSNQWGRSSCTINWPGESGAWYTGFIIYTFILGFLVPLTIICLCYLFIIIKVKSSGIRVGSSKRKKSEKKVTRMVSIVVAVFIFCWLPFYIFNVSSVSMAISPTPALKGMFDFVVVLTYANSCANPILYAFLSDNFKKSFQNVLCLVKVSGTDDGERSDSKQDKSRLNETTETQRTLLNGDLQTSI

Compound | EC50 [µM]
N#Cc1cncc(-c2ccc3ncc(-c4cc(F)cc(F)c4)c(N4CC[C@H]5NCCO[C@@H]5C4)c3c2)c1N (racemic) [2-244, 5-{4-[trans-octahydro-1H-pyrido[3,4-b]morpholin-6-yl]-3-(3,5-difluorophenyl)quinolin-6-yl}-4-aminopyridine-3-carbonitrile] | < 0.01
Nc1ncccc1-c1ccc2ncc(-c3cc(F)cc(F)c3)c(N3CC[C@H]4NCCO[C@@H]4C3)c2c1 (racemic) [2-246] | < 0.01
Cc1cc(F)cc(-c2nnc3cc(Cl)c(-c4cc(F)cc(C(N)=O)c4)cc3c2N2CC[C@@H](N)[C@H](O)C2)c1 (relative stereo) [1-26, 3-{4-[trans-4-amino-3-hydroxypiperidin-1-yl]-7-chloro-3-(3-fluoro-5-methylphenyl)cinnolin-6-yl}-5-fluorobenzamide] | < 0.01
COC(=O)Nc1c(F)cncc1-c1ccc2ncc(-c3cc(C)cc(F)c3)c(N3CCC(N)CC3)c2c1 [2-171, methyl N-{3-[4-(4-aminopiperidin-1-yl)-3-(3-fluoro-5-methylphenyl)quinolin-6-yl]-5-fluoropyridin-4-yl}carbamate] | < 0.01
COC(=O)Nc1ncc(F)cc1-c1ccc2ncc(-c3cc(C)cc(F)c3)c(N3CCC(N)CC3)c2c1 [2-182, methyl N-{3-[4-(4-aminopiperidin-1-yl)-3-(3-fluoro-5-methylphenyl)quinolin-6-yl]-5-fluoropyridin-2-yl}carbamate] | < 0.01
C#Cc1ccnc(-c2ccc3ncc(-c4cc(F)cc(F)c4)c(N4CC[C@H]5NCCO[C@@H]5C4)c3c2)c1N [2-277, 2-{4-[trans-octahydro-1H-pyrido[3,4-b]morpholin-6-yl]-3-(3,5-difluorophenyl)quinolin-6-yl]-4-ethynylpyridin-3-amine] | < 0.01
Cc1cc(F)cc(-c2cnc3ccc(-c4cc(F)cc(C#N)c4O)nc3c2N2CCC(N)CC2)c1 [3-2, 3-[8-(4-aminopiperidin-1-yl)-7-(3-fluoro-5-methylphenyl)-1,5-naphthyridin-2-yl]-5-fluoro-2-hydroxybenzonitrile] | < 0.01
